# Reference: patent US20080267894A1, “Acerola Fruit-Derived Pectin and Its Application” (NICHIREI FOODS INC., priority 2005, published 2008)
# What was measured:
# [1] = DPPH radical scavenging activity test (Test method 1.2); type: biochemical; details: Table 7
# Method: Antioxidative activities were evaluated using an ethanol solution of diphenyl-p-picrylhydradil (DPPH), which is a stable radical. 1200 μl of ethanol and 400 μl of a specimen (adjusted to any concentration) were mixed with 1600 μl of a 250 mM acetate buffer (pH=5.5), followed by preincubation at 30° C. for 5 minutes. 800 μl of a 500 μM DPPH/ethanol solution was added to the solution and mixed therewith, and the resultant was then allowed to stand at 30° C. for 30 minutes. Absorbance was measured at 517 nm. A similar procedure was performed also for α-tocopherol and then the result was used as a positive control. The control used herein was prepared by performing a similar procedure using a solvent instead of a sample solution. Radical scavenging ratio was calculated by the following equation using the thus measured absorbances.
# Scavenging ratio (%)=(1−[absorbance of sample]/[absorbance of control])×100
# The above measurement for finding scavenging ratios was performed by varying stepwise the concentration of a sample in a solution. The concentration of a sample solution leading to a 50% DPPH radical scavenging ratio was found and designated the concentration required for scavenging 50% of the DPPH radicals. Thus, it can be said that the lower the numerical value, the higher the radical scavenging ability.
# [2] = Anti-oxidation activity (rhodan-iron method) using linoleic acid, suppression of auto-oxidation; type: biochemical; details: for Absorbance, auto-oxidation of linoleic acid: specimen 0.02% (W/W)
# Method: Linoleic acid is unsaturated fatty acid that is contained richly also in human body. The unsaturated fatty acid is characterized by being auto-oxidized when it is allowed to stand, so as to be lipid peroxide. In this experiment, linoleic acid is mixed with a sample, the mixture is allowed to stand at 40° C., and then antioxidative activities are evaluated based on increases in the amounts of lipid oxides purified from linoleic acid. […] The resulting mixture was put into a brown screw cap bottle, so that 10 ml of a reaction solution was prepared. When a specimen was a water-insoluble component, the specimen was dissolved in the above 99.5% ethanol, so that a reaction solution was prepared. When a specimen was a water-soluble component, the specimen was dissolved in the above distilled water, so that a reaction solution was prepared. In addition, in this test method, the term “specimen concentration” indicates a specimen concentration in 2 ml of 99.5% ethanol or 2 ml of distilled water. Therefore, the final concentration of each specimen in each reaction solution was one fifth of the predetermined concentration. Furthermore, regarding specimens positive for antioxidative activities, similar procedures were performed for BHA so that it is contained in appropriate amounts in reaction solutions. Positive control specimens were thus prepared. A control used herein was prepared by adding 2 ml of 99.5% ethanol and 2 ml of distilled water alone to the reaction solution. Such reaction solution stored in the dark at 40° C. was used for the main test and such reaction solution stored at 4° C. was used for a blank test. Test substances were sampled with time and then measured as described below. Tests were conducted for 2 or more weeks. 0.1 ml of 2×10^2M ferrous chloride (3.5% hydrochloric acid solution) was added to the mixture of 0.1 ml of a test substance, 9.7 ml of 75% ethanol, and 0.1 ml of 30% ammonium rhodanate aqueous solution. At precisely 3 minutes after addition, absorbance was measured at 500 nm. Absorbance was similarly measured in a blank test: Δ absorbance=[absorbance in main test]−[absorbance in blank test]. The higher the absorbance, the higher the amount of oxidized lipids. […] Furthermore, when oxidation of a sample is initiated, the absorbance increases. After the absorbance reaches a peak, the absorbance decreases as the amount of a sample to be oxidized decreases. It can be said that the sooner the absorbance reaches a peak, the weaker the anti-oxidation activity. Furthermore, anti-oxidation activities of the samples were compared in terms of oxidation ratio (%). Oxidation ratio (%) was obtained by the following formula using the oxidation (absorbance) of the control as 100%. Oxidation ratio (%)=([Δ absorbance of sample]/[Δ absorbance of control])×100 [Formula 1] It can be said that the higher the oxidation ratio (%), the lower the anti-oxidation activity.
# animal cells [3] = details: cited from earlier work
# animal cells [4] = details: animal cell test; cited from earlier work
# tyrosinase = test: Effect of inhibiting tyrosinase (skin-whitening activity); type: biochemical, mushroom
# Method: A test concerning activity of inhibiting tyrosinase, which is an enzyme that generates a melanin pigment, was conducted by the following procedure. • (1) *4 mL of an L-DOPA aqueous solution, **4 mL each of samples diluted at different concentrations, and 2 mL of a 0.2 M phosphate buffer (pH 6.8) were mixed. The mixture was heated in a thermostatic bath at 37° C. […] Changes in absorbance were automatically measured for over 20 seconds from the start to the end at intervals of 0.1 second. The rise velocity of absorbance between 4 seconds and 10 seconds after the start of measurement was calculated. *Tyrosinase solution: Solution obtained by dissolving tyrosinase (SIGMA) derived from a mushroom in a 0.2 M phosphate buffer (pH 6.8) at a concentration of 300 units/mL and then conducting filtering using a 0.2 μm filter • (3) To obtain a blank value, measurement was performed using a 0.2 M phosphate buffer instead of a sample and then tyrosinase-inhibiting activity was calculated by the equation below. Furthermore, a substance that could not be dissolved in a phosphate buffer was dissolved in dimethyl sulfoxide (DMSO), diluted with a phosphate buffer, and then measured. […]
# Tyrosinase activity inhibition ratio (%)=100−((absorbance rise velocity of sample)/(absorbance rise velocity of blank))×100
# brown guinea pigs = test: Skin-whitening test: suppression of pigmentation after UV irradiation; type: in vivo; details: oral, dose of ascorbic acid 300 mg/kg animal weight/day, 42 days; UVB on days 0, 2, 4; observed days 7 to 42
# Method: The effect of suppressing pigmentation after UV irradiation was examined using brown guinea pigs (SPF). The brown guinea pigs are of an animal species that undergoes pigmentation because of UV irradiation in a manner similar to humans and of a line that has been clearly maintained. Six guinea pigs were used for each group in this test. To promote pigmentation, UV (UVB) irradiation was performed from a distance of 40 cm using five SE lamps (wavelength between 250 nm and 350 nm, […] Corporation) installed in an UV irradiation apparatus (Y-798-II, Orion Electric Co., Ltd.). […] This time was designated the time for UV irradiation in this test. Each irradiation site was a 2 cm×2 cm square area located on either the left or right across the midline of the back of a guinea pig that had been sheared using electric clippers and then shaved using an electric shaver. […] Pigmentation was measured as follows. Before the initial administration (before irradiation) on the day of the initiation of administration and on days 7, 14, 21, 28, 35, and 42 after initial administration, L value (lightness) of irradiated sites were measured using a colorimeter (CR-300, Minolta Co., Ltd.) and then the ΔL value (L value on the day of observation-L value before irradiation) was found. […]
# [5] = Experiment 1, 1 day of storage at 40° C.
# [6] = Experiment 1, 4 days of storage at 40° C.
# [7] = Experiment 1, 5 days of storage at 40° C.
# [8] = Experiment 1, 8 days of storage at 40° C.
# [9] = Experiment 1, 11 days of storage at 40° C.
# [10] = Experiment 1, 15 days of storage at 40° C.
compound,measurement,setting,value
(±)-α-Tocopherol,50% radical scavenging activity concentration,[1],127 ppm
same,"Absorbance, auto-oxidation of linoleic acid",[2]; [5],0.0195
same,"Absorbance, auto-oxidation of linoleic acid",[2]; [6],0.0827
same,"Absorbance, auto-oxidation of linoleic acid",[2]; [7],0.1014
same,"Absorbance, auto-oxidation of linoleic acid",[2]; [8],0.1326
same,"Absorbance, auto-oxidation of linoleic acid",[2]; [9],0.1551
same,"Absorbance, auto-oxidation of linoleic acid",[2]; [10],0.1796
O=C[C@H](O)[C@@H](O)[C@@H](O)[C@H](O)C(=O)O [galacturonic acid],Effect of suppressing melanin pigment generation,animal cells [3],has not been confirmed
3(2)-t-Butyl-4-hydroxyanisole [BHA],"Absorbance, auto-oxidation of linoleic acid",[2]; [5],0.0000
same,"Absorbance, auto-oxidation of linoleic acid",[2]; [6],0.0105
same,"Absorbance, auto-oxidation of linoleic acid",[2]; [7],0.0111
same,"Absorbance, auto-oxidation of linoleic acid",[2]; [8],0.0313
same,"Absorbance, auto-oxidation of linoleic acid",[2]; [9],0.0559
same,"Absorbance, auto-oxidation of linoleic acid",[2]; [10],0.0752
same,"Absorbance, auto-oxidation of linoleic acid","[2]; Experiment 2, 1 day of storage at 40° C.",0.0001
same,"Absorbance, auto-oxidation of linoleic acid","[2]; Experiment 2, 4 days of storage at 40° C.",0.0088
same,"Absorbance, auto-oxidation of linoleic acid","[2]; Experiment 2, 5 days of storage at 40° C.",0.0121
same,"Absorbance, auto-oxidation of linoleic acid","[2]; Experiment 2, 8 days of storage at 40° C.",0.0269
same,"Absorbance, auto-oxidation of linoleic acid","[2]; Experiment 2, 14 days of storage at 40° C.",0.0609
same,"Absorbance, auto-oxidation of linoleic acid","[2]; Experiment 2, 18 days of storage at 40° C.",0.0866
oligogalacturonic acid,Effect of suppressing melanin production,animal cells [4],exerted an effect of suppressing melanin production
polygalacturonic acid,Effect of suppressing melanin pigment generation,animal cells [3],has not been confirmed
OCC1OC2O[C@@H]3[C@@H](c4ccc(O)c(O)c4)Oc4cc(O)cc(O)c4[C@@H]3OC2C(O)C1O (stereo partly shown) [Aceronidin],50% radical scavenging activity concentration,[1],80 ppm
same,"skin-whitening effect (effect of inhibiting tyrosinase), in words",tyrosinase,almost no skin-whitening effect (effect of inhibiting tyrosinase)
same,Tyrosinase-inhibiting activity,"tyrosinase; L-DOPA substrate, 37° C., sample concentration not given",3.1%
"O=C1O[C@H]([C@@H](O)CO)C(O)=C1O [vitamin C, ascorbic acid]","ΔL value of UV-irradiated skin (pigmentation), FIG. 21, in words",brown guinea pigs,measurement values were almost the same
same,"Antioxidative activities for lipids (FIG. 15), in words",[2]; specimen concentration 0.02% (W/W),no antioxidative activities at all
same,"Antioxidative activities for lipids (FIG. 15), in words",[2]; specimen concentration 0.04% (W/W),no antioxidative activities at all
